Measurements: patent US20230106465A1, “7-Gene Prognostic and Predictive Assay for Non-Small Cell Lung Cancer in Formalin Fixed and Paraffin Embedded Samples” (West Virginia University, priority 2019, published 2023)

Tests used:
Type in all cases: in vivo, human
[1] = test system: SLC39A8; test: Cox proportional hazard model using SLC39A8 ΔCt values in qRT-PCR of NSCLC patients treated with chemotherapy; settings: SLC39A8 expression
Description: (§1) Patient samples. All NSCLC patients were staged I, II, or IIIA at the time of diagnosis. Tumor tissues were collected in surgical resections and were then formalin fixed or paraffin embedded until used for RNA extraction. Tumor cell content was above 50% for qRT-PCR assays. Those with missing AJCC staging information, missing histology, death within 30 days of resection or from other disease conditions were excluded from further analysis. A total of 122 NSCLC patient samples were obtained from Case Western Reserve University (CWRU) Comprehensive Cancer Center. […] The tissue collection in this study was approved by an Institutional Review Board (IRB) at each institution.
(§2) RNA extraction, and quality and concentration assessments. […] The quality and integrity of the RNA, the 28S to 18S ratio, and a visual image of the 28S and 18S bands were evaluated on the 2100 Bioanalyzer (Agilent Technologies, CA). […] The RNA concentration of each sample was assessed using a Nanodrop-1000 Spectrophotometer (NanoDrop Tech, Germany). […]
(§3) Real-time quantitative RT-PCR low-density arrays. […]
(§4) Three hundred thirty seven (337) tumor samples were analyzed with good RNA quality using TaqMan microfluidic low-density array (LDA) plates on an ABI 7900HT Fast RT-PCR instrument (Applied Biosystems).

[2] = test system: FUT7; test: Cox proportional hazard model using FUT7 ΔCt values in qRT-PCR of NSCLC patients treated with chemotherapy; settings: FUT7 expression
Description: Patient samples. All NSCLC patients were staged I, II, or IIIA at the time of diagnosis. Tumor tissues were collected in surgical resections and were then formalin fixed or paraffin embedded until used for RNA extraction. Tumor cell content was above 50% for qRT-PCR assays. Those with missing AJCC staging information, missing histology, death within 30 days of resection or from other disease conditions were excluded from further analysis. A total of 122 NSCLC patient samples were obtained from Case Western Reserve University (CWRU) Comprehensive Cancer Center. Total RNA of good quality was extracted from 89 tumor specimens. […]
RNA extraction, and quality and concentration assessments. […] The quality and integrity of the RNA, the 28S to 18S ratio, and a visual image of the 28S and 18S bands were evaluated on the 2100 Bioanalyzer (Agilent Technologies, CA). RNA assessed as having good quality from […] tumor samples was included for further analysis. The RNA concentration of each sample was assessed using a Nanodrop-1000 Spectrophotometer (NanoDrop Tech, Germany). […]
as §3
Three hundred thirty seven (337) tumor samples were analyzed with good RNA quality using TaqMan microfluidic low-density array (LDA) plates on an ABI 7900HT Fast RT-PCR instrument (Applied Biosystems). Total RNA samples were analyzed on an Agilent 2100 Bioanalyzer RNA 6000 Nano LabChip. […]

[3] = test system: ABCC4; test: Cox proportional hazard model using ABCC4 ΔCt values in qRT-PCR of NSCLC patients treated with chemotherapy; settings: ABCC4 expression; patients treated with the named agent(s)
Description: as §1, §2, §3, §4

Row | SMILES | Chemosensitive/resistant [1] | Chemosensitive/resistant [2] | Chemosensitive/resistant [3]
1 | Nc1nc2[nH]cc(CCc3ccc(C(=O)N[C@@H](CCC(=O)O)C(=O)O)cc3)c2c(=O)[nH]1 [Alimta, pemetrexed] | Chemoresistant |  | 
2 | N.N.O=C([O-])C1(C(=O)[O-])CCC1.[Pt+2] [Carboplatin, carboplatin] |  | Chemosensitive | 
3 | CC(=O)O[C@H]1C(=O)[C@@]2(C)[C@H]([C@H](OC(=O)c3ccccc3)[C@]3(O)C[C@H](OC(=O)[C@H](O)[C@@H](NC(=O)c4ccccc4)c4ccccc4)C(C)=C1C3(C)C)[C@]1(OC(C)=O)CO[C@@H]1C[C@@H]2O [Taxol, paclitaxel] | Chemoresistant |  | Chemoresistant
